Experimental data: patent US9598686B2, “Use of Galerina marginata genes and proteins for peptide production” (Board of Trustees of Michigan State University, priority 2007, dated 2017)
*1 amine or outer side, *2 acyl side, *3 side chain or, on linkers, in order; H or OH if unused. Where a SMILES comes first, the peptide text is derived from it. Bridges are numbered along the chain shown (N, C = ends). [ ]: non-standard residue; d: D form. Trp(2-SH) = 2-mercapto-L-tryptophan, O=C([C@H](Cc1c(S[*:3])[nH]c2ccccc12)N[*:1])[*:2]; Trp(2-yl) = O=C([C@H](Cc1c([*:3])[nH]c2ccccc12)N[*:1])[*:2]; Leu(4R-OH,5-OH) = C[C@](O)(CO)C[C@H](N)C(=O)O; Leu(4,5-diOH) = 4,5-dihydroxy-L-leucine; cisHyp = O=C(O)[C@@H]1C[C@H](O)CN1

Columns and labels:
[1] = tested on: POPB (prolyl oligopeptidase) purified from Conocybe albipes; experiment: cleavage of synthetic model toxin propeptides by purified POP, reverse phase HPLC and MS; type: biochemical; conditions: products confirmed by MS/MS
Method: The responsible enzyme was purified. Specifically, Conocybe mushrooms were freeze-dried, ground in buffer, and the extracts concentrated by ammonium sulfate precipitation. After desalting, the proteins were fractionated by anion exchange high-performance liquid chromatography (or high pressure liquid chromatography, HPLC).
Fractions containing peptides were assayed using Z-Gly-Pro-pNA and the model phallacidin substrate. Reaction products were separated by reverse phase HPLC (FIG. 20). In some experiments the HPLC eluant was analyzed by MS, while in other cases the peaks of UV absorption were collected and analyzed by MS in the inventors lab and the central LC/MS facility, in particular for long HPLC run times. […] PepSeq within the MassLynx program was used to determine peptide sequences. The peptides eluting from HPLC were monitored at 280 nm.
Confirmation of reaction product structures was accomplished by MS/MS.

[2] = parenteral: inhalation, intravenous or intramuscular injection; cited from earlier work
[3] = oral; cited from earlier work
human = conditions: cited from earlier work

Molecule | cleavage by purified POP at flanking Pro residues [1] | toxicity when administered parenterally [2] | absorption by the mammalian digestive tract [3] | also measured
MSDINATRLPAWLATCPCAGDD [synthetic phalloidin peptide, synthesized model peptide mimicking the phalloidin proprotein] | cuts | – | – | –
ATRLPIWGIGCNPCVGDD [synthetic amanitin precursor] | cut | – | – | –
cyclic (L-alanyl-2-mercapto-L-tryptophyl-4,5-dihydroxy-L-leucyl-L-valyl-er-ythro-3-hydroxy-D-alpha-aspartyl-cysteinyl-cis-4-hydroxy-L-prolyl)cyclic (2-6)-sulfide (cyclo(A[Trp(2-SH)][Leu(4,5-diOH)]VDC[cisHyp]); thioether 2-6; not fully specified (residue 5)) [phallacidin] | – | poisonous | do not appear to be absorbed | –
cyclic (L-asparaginyl-4-hydroxy-L-prolyl-(R)-4,5-dihydroxy-L-isoleucyl-6-hydroxy-2-mercapto-L-tryptophylglycyl-L-isoleucylglycyl-L-cysteinyl), cyclic (4-8)-sulfide, (R)—S-oxide [α-amanitin] | – | – | – | fatal dose (human; fatal for at least 50% of people weighing approximately 100-110 kgs, amount one mature mushroom can contain): 10 to 12 mg; human LD50 (human; human): approximately 0.1 mg/kg
C[C@@H]1NC(=O)[C@H](C[C@@](C)(O)CO)NC(=O)[C@@H]2Cc3c([nH]c4ccccc34)SC[C@H](NC(=O)[C@@H]([C@H](C)O)NC1=O)C(=O)N1C[C@@H](O)C[C@H]1C(=O)N[C@@H](C)C(=O)N2 [phalloidin, cyclic (L-alanyl-D-threonyl-L-cysteinyl-cis-4-hydroxy-L-prolyl-L-alanyl-2-mercapto-L-tryptophyl-4,5-dihydroxy-L-leucyl), cyclic (3,6)-sulfide] (cyclo(A[dT]C[cisHyp]A[Trp(2-yl)][Leu(4R-OH,5-OH)]); thioether 3-6) | – | poisonous | do not appear to be absorbed | –
ATRLPAWLVDCPCVGDD [synthetic phallacidin precursor] | cut | – | – | –
